Experimental data reported in the CheMixHub viscosity set.
± gives the uncertainty stated by the source.

Assay: xn = mol fraction of the nth substance listed

C=Cc1ccccc1 + CS(C)=O
viscosity [mPa·s], 101.33 kPa
Details	x1 = 0.1017	x1 = 0.2022	x1 = 0.3096	x1 = 0.3987	x1 = 0.501	x1 = 0.6007	x1 = 0.6968	x1 = 0.801	x1 = 0.896
298.15 K	1.642 ± 0.011	1.475 ± 0.01	1.326 ± 0.009	1.237 ± 0.008	1.139 ± 0.008	1.058 ± 0.007	0.982 ± 0.007	0.887 ± 0.006	0.802 ± 0.005
303.15 K	1.482 ± 0.01	1.343 ± 0.009	1.191 ± 0.008	1.112 ± 0.007	1.044 ± 0.007	0.976 ± 0.007	0.91 ± 0.006	0.827 ± 0.006	0.749 ± 0.005
308.15 K	1.335 ± 0.009	1.204 ± 0.008	1.083 ± 0.007	1.014 ± 0.007	0.957 ± 0.007	0.899 ± 0.006	0.837 ± 0.006	0.763 ± 0.005	0.7 ± 0.005

C=Cc1ccccc1 + CCCCCC
viscosity [mPa·s], 101.33 kPa
Details	x1 = 0.1019	x1 = 0.1987	x1 = 0.3024	x1 = 0.4003	x1 = 0.4992	x1 = 0.6023	x1 = 0.7055	x1 = 0.8021	x1 = 0.8935
298.15 K	0.314 ± 0.01	0.334 ± 0.01	0.362 ± 0.01	0.385 ± 0.01	0.417 ± 0.01	0.457 ± 0.011	0.507 ± 0.011	0.566 ± 0.011	0.632 ± 0.011
303.15 K	0.302 ± 0.01	0.319 ± 0.01	0.346 ± 0.01	0.367 ± 0.01	0.397 ± 0.01	0.436 ± 0.011	0.482 ± 0.011	0.534 ± 0.011	0.597 ± 0.011
308.15 K	0.29 ± 0.01	0.305 ± 0.01	0.328 ± 0.01	0.351 ± 0.01	0.379 ± 0.01	0.412 ± 0.01	0.455 ± 0.011	0.505 ± 0.011	0.56 ± 0.011

C[C@@H](O)[C@H](N)C(=O)O + O
101 kPa
Details	viscosity [mPa·s]
293.15 K, x1 = 0.001804	1.036 ± 0.022
293.15 K, x1 = 0.0107	1.226 ± 0.026
298.15 K, x1 = 8.95e-05	0.9002 ± 0.043
298.15 K, x1 = 0.0001801	0.9048 ± 0.043
298.15 K, x1 = 0.001819	0.9278 ± 0.044
298.15 K, x1 = 0.003526	0.9547 ± 0.045
298.15 K, x1 = 0.005296	0.9865 ± 0.046
298.15 K, x1 = 0.007341	1.02 ± 0.048
298.15 K, x1 = 0.008519	1.047 ± 0.049
298.15 K, x1 = 0.01104	1.075 ± 0.051
298.15 K, x1 = 0.01269	1.105 ± 0.052
298.15 K, x1 = 0.01399	1.136 ± 0.054
303.15 K, x1 = 0.007153	0.904 ± 0.019
303.15 K, x1 = 0.01245	0.9968 ± 0.021
305.15 K, x1 = 0.00036	0.788 ± 0.0051
305.15 K, x1 = 0.0007203	0.7937 ± 0.0051
305.15 K, x1 = 0.00108	0.7998 ± 0.0052
305.15 K, x1 = 0.001439	0.8055 ± 0.0052
305.15 K, x1 = 0.001798	0.8106 ± 0.0052
305.15 K, x1 = 0.002157	0.8163 ± 0.0053
308.15 K, x1 = 8.95e-05	0.7885 ± 0.037
308.15 K, x1 = 0.0001801	0.7945 ± 0.038
308.15 K, x1 = 0.001819	0.8025 ± 0.038
308.15 K, x1 = 0.003526	0.8241 ± 0.039
308.15 K, x1 = 0.005296	0.8417 ± 0.04
308.15 K, x1 = 0.007341	0.8612 ± 0.041
308.15 K, x1 = 0.008519	0.8741 ± 0.041
308.15 K, x1 = 0.01104	0.9001 ± 0.043
308.15 K, x1 = 0.01269	0.9289 ± 0.044
308.15 K, x1 = 0.01399	0.9456 ± 0.045
310.15 K, x1 = 0.00036	0.707 ± 0.0047
310.15 K, x1 = 0.0007203	0.7122 ± 0.0047
310.15 K, x1 = 0.00108	0.7174 ± 0.0048
310.15 K, x1 = 0.001439	0.7223 ± 0.0048
310.15 K, x1 = 0.001798	0.7263 ± 0.0048
310.15 K, x1 = 0.002157	0.7313 ± 0.0048
313.15 K, x1 = 0.008929	0.758 ± 0.016
313.15 K, x1 = 0.0107	0.7828 ± 0.017
313.15 K, x1 = 0.01245	0.8054 ± 0.017
315.15 K, x1 = 0.00036	0.6527 ± 0.0045
315.15 K, x1 = 0.0007203	0.6576 ± 0.0045
315.15 K, x1 = 0.00108	0.6612 ± 0.0045
315.15 K, x1 = 0.001439	0.6656 ± 0.0045
315.15 K, x1 = 0.001798	0.6694 ± 0.0045
315.15 K, x1 = 0.002157	0.6737 ± 0.0046
318.15 K, x1 = 8.95e-05	0.6814 ± 0.032
318.15 K, x1 = 0.0001801	0.6945 ± 0.033
318.15 K, x1 = 0.001819	0.7042 ± 0.033
318.15 K, x1 = 0.003526	0.7214 ± 0.034
318.15 K, x1 = 0.005296	0.7356 ± 0.035
318.15 K, x1 = 0.007341	0.7565 ± 0.036
318.15 K, x1 = 0.008519	0.7645 ± 0.036
318.15 K, x1 = 0.01104	0.7898 ± 0.037
318.15 K, x1 = 0.01269	0.8045 ± 0.038
318.15 K, x1 = 0.01399	0.8214 ± 0.039
323.15 K, x1 = 0.00359	0.5782 ± 0.012
323.15 K, x1 = 0.007153	0.6118 ± 0.013

BrC(Br)Br + COCCO
viscosity [mPa·s], 101.3 kPa
Details	x1 = 0.097	x1 = 0.198	x1 = 0.297	x1 = 0.401	x1 = 0.499	x1 = 0.6	x1 = 0.697	x1 = 0.798	x1 = 0.9
298.15 K	1.922 ± 0.024	2.097 ± 0.026	2.22 ± 0.028	2.27 ± 0.028	2.245 ± 0.028	2.183 ± 0.027	2.094 ± 0.026	2.003 ± 0.025	1.932 ± 0.024
303.15 K	1.719 ± 0.022	1.872 ± 0.024	1.984 ± 0.025	2.03 ± 0.025	2.014 ± 0.025	1.972 ± 0.025	1.909 ± 0.024	1.842 ± 0.023	1.794 ± 0.023
308.15 K	1.549 ± 0.02	1.68 ± 0.021	1.774 ± 0.022	1.825 ± 0.023	1.817 ± 0.023	1.792 ± 0.023	1.748 ± 0.022	1.702 ± 0.022	1.676 ± 0.021
